# Reference: patent publication US20120095055A1, “HEXAHYDROCYCLOPENTYL[f]INDAZOLE 5-HYDROXYMETHYL ETHANOLS AND DERIVATIVES THEREOF AS SELECTIVE GLUCOCORTICOID RECEPTOR MODULATORS” (Merck Sharp & Dohme, Corp., priority 2009, published 2012)
# Molecular target: T1, human GR (Homo sapiens, UniProt P04150)
# T1 construct: naturally expresses the human GR; endogenous in cells
# T1 sequence (P04150 1-777): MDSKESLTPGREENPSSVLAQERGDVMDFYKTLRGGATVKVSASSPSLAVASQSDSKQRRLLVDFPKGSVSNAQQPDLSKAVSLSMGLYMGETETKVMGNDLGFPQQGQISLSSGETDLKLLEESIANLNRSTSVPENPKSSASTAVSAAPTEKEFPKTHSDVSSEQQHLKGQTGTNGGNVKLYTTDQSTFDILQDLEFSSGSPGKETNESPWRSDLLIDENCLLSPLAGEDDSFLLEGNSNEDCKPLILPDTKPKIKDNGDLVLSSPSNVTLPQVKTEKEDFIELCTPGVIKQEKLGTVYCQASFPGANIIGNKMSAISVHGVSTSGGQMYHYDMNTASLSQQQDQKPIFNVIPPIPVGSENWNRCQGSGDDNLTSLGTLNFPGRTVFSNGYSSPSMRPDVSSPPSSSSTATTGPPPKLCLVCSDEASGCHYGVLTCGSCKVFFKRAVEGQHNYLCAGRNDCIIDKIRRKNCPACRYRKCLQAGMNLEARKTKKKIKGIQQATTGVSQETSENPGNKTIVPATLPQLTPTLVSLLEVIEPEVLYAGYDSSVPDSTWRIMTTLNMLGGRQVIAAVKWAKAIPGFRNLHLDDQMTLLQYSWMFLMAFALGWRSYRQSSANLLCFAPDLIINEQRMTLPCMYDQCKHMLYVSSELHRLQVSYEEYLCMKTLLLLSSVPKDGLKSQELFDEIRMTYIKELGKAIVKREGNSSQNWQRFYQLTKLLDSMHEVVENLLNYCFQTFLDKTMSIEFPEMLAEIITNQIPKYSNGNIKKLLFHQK
# Assay: Trans-Activation Modulation of Glucocorticoid Receptor Assay (GRAMMER), MMTV-LUC reporter in A549 cells
# Type: cell-based
# Settings: for Transactivation A549 Cells GRAMMER Emax (%): Emax relative to the activity obtained with 300 nM dexamethasone; for EC50: inflection point (IP), MMTV-LUC reporter, read-out: Transactivation A549 Cells GRAMMER IP; for Emax: A549, Emax relative to the activity obtained with 300 nM dexamethasone, read-out: Transactivation A549 Cells GRAMMER Emax (%)
# Text: This assay assesses the ability of test compounds to control transcription from the MMTV-LUC reporter gene in lung adenocarcinoma A549 cells or HeLa cells, a human […] cell line that naturally expresses the human GR. The assay measures induction of a modified MMTV LTR/promoter linked to the LUC reporter gene.
# The routine transient assay consists of plating 7,000-25,000 cells/well of a white, clear-bottom 96-well plate. Alternatively, 384-well plates can be used at a cell concentration of 10,000/well. The media that the cells are plated in is “exponential growth medium” which consists of phenol red-free RPMI1640 containing 10% FBS, 4 mM L-glutamine, 20 mM HEPES, 10 ug/mL human insulin, and 20 ug/mL gentamicin. Incubator conditions are 37° C. and 5% CO2. The transfection is done in batch mode. The cells are trypsinized and counted to the right cell number in the proper amount of fresh media. It is then gently mixed with the FuGene6/DNA mix and plated onto the 96 or 384-well plate, all the wells receive 100 uL or 40 uL, respectively, of medium+lipid/DNA complex then incubated 37° C. overnight. The transfection cocktail consists of serum-free OptiMEM, FuGene6 reagent and DNA. The manufacturer's (Roche Biochemical) protocol for cocktail setup is as follows: The lipid to DNA ratio is approximately 2.5:1 and the incubation time is 20 min at room temperature. Sixteen to 24 hours after transfection, the cells are treated with dexamethasone to a final concentration of 10 nM as well as the compound of interest, such that final DMSO (vehicle) concentration is equal to or less than 1%. Each plate also contains samples that are treated with 10 nM dexamethasone alone, which is used as the 100% activity control. The cells are exposed to the compounds for 24 hours. After 24 hours, the cells are lysed by a Promega cell culture lysis buffer for approximately 30 min and then the luciferase activity in the extracts is assayed in the 96-well format luminometer. In 384-well format, Steady-Glo (Promega) or Steady-Lite (PerkinElmer) can be used by adding an equal volume of reagent to the media present in each well. Activity induced by 10 nM dexamethasone alone is set at 100% activity. Antagonist activity is calculated by determining the decrease in dexamethasone-induced activity in response to compound treatment relative to samples that were treated with dexamethasone alone. Results are expressed as % inhibition of 10 nM dexamethasone activity or as fold of 10 nM dexamethasone activity. This transactivation assay can be performed in an agonist and antagonist mode to identify these different activities.
# Activity of test compounds is calculated as the Emax relative to the activity obtained with 300 nM dexamethasone. Activity of test compounds is calculated as the Emax relative to the activity obtained with 300 nM DEX. The exemplified tissue selective glucocorticoid receptor modulators of the present invention display agonist activity in this assay of greater than 5% and less than 100%, and maximal transactivation activity less then maximal transrepression activity. […]
SMILES,Transactivation A549 Cells GRAMMER Emax (%),EC50 [nM],Emax [%]
"COc1cccnc1C(O)C[C@]1(CO)CCC2=Cc3c(cnn3-c3ccc(F)cc3)C[C@@]21C (single isomer, unassigned) [Example 21b]",64.8,40.2,–
"C[C@]12Cc3cnn(-c4ccccc4)c3C=C1CC[C@@]2(CO)CC(O)c1cccnc1 (single isomer, unassigned) [Example 29a]",30.7,168,–
"C[C@]12Cc3cnn(-c4ccc(F)cc4)c3C=C1CC[C@@]2(CO)CC(O)C1CCCCC1 (single isomer, unassigned) [Example 18a, 1-cyclohexyl-2-[(4αS)-1-(4-fluorophenyl)-5-(hydroxymethyl)-4α-methyl-1,4,4α,5,6,7-hexahydrocyclopenta[f]indazol-5-yl]ethanol]",–,22.3,55.3
"COc1cccnc1C(O)C[C@]1(CO)CCC2=Cc3c(cnn3-c3cccc(F)c3)C[C@@]21C (single isomer, unassigned) [Example 26a]",24.8,144,–
"C[C@]12Cc3cnn(-c4cccc(F)c4)c3C=C1CC[C@@]2(CO)CC(O)c1ccccn1 (single isomer, unassigned) [Example 19b]",24.2,94.8,–
"C[C@]12Cc3cnn(-c4ccc(F)cc4)c3C=C1CC[C@@]2(CO)CC(O)c1cccc(C(F)(F)F)c1 (single isomer, unassigned) [Example 7a]",–,58.8,60.2

# Results, then the compound that gave them:
Transactivation A549 Cells GRAMMER Emax (%),EC50 [nM],Emax [%],SMILES
39.3,149,–,"C[C@]12Cc3cnn(-c4ccc(F)cc4)c3C=C1CC[C@@]2(CO)CC(O)c1cccnc1 (single isomer, unassigned) [Example 15b]"
–,68.1,52.7,"C[C@]12Cc3cnn(-c4ccc(F)cc4)c3C=C1CC[C@@]2(CO)CC(O)c1cccnc1 (single isomer, unassigned) [Example 15a]"
–,78.8,65.5,"Cc1cccc(C(O)C[C@]2(CO)CCC3=Cc4c(cnn4-c4ccc(F)cc4)C[C@@]32C)c1 (single isomer, unassigned) [Example 5a]"
